Literature values, collected in US20240131064A1, “TREATMENT OF CANCER PATIENTS WITH TUMOR INFILTRATING LYMPHOCYTE THERAPIES IN COMBINATION WITH BRAF INHIBITORS AND/OR MEK INHIBITORS” (Iovance Biotherapeutics, Inc., priority 2020, published 2024).
Where two headings read alike, the source gives them in different places.

Key:
[1] = system: BRAF V600E mutation-positive, unresectable or metastatic melanoma; conditions: 187 patients treated, no prior BRAF or MEK inhibitor
[2] = system: metastatic melanoma
[3] = percent of patients

Compound: CC(C)(C)c1nc(-c2cccc(NS(=O)(=O)c3c(F)cccc3F)c2F)c(-c2ccnc(N)n2)s1 [dabrafenib]
- median duration of response (DOR) [1]: 5.6 months

Compound: des-alanyl-1, serine-125 human IL-2 [aldesleukin]
- overall objective response rate (ORR) ([2]; high-dose aldesleukin, metastatic melanoma): 16%
- durable complete tumor regressions (CRs) ([2]; high-dose aldesleukin, treated patients with metastatic melanoma): up to 6%

Compound: ipilimumab: CTLA-4 inhibitor, heavy chain SEQ ID NO:208, light chain SEQ ID NO:209
- Treatment-related adverse events leading to discontinuation of therapy [3]: 14.8%

Compound: nivolumab: PD-1 inhibitor, heavy chain SEQ ID NO:158, light chain SEQ ID NO:159
- rate of durable responses relative to aldesleukin treatment ([2]; metastatic melanoma): approximately double
- ORR ([2]; previously treated patients): 32%
- Treatment-related adverse events leading to discontinuation of therapy [3]: 7.7%

Compound: pembrolizumab: PD-1 inhibitor, heavy chain SEQ ID NO:168, light chain SEQ ID NO:169
- ORR ([2]; following prior therapy with ipilimumab): 21%
- rate of durable responses relative to aldesleukin treatment ([2]; metastatic melanoma): approximately double
